Data published in the NIST ThermoML archive (doi:10.1021/je101192x).
Numbers after ± are expanded uncertainties.

Assay: wn = mass fraction of the nth substance listed
Settings: for viscosity / mass density: 101 kPa, Liquid; for viscosity: Capillary tube (Ostwald / Ubbelohde) method; for mass density: Pycnometric method; for surface tension liquid-gas: Pendant drop shape

CN(CCO)CCO [N-methyldiethanolamine] + O
Settings	mass density, 288.15 K [kg/m3]	mass density, 313.15 K [kg/m3]	surface tension liquid-gas, 313.15 K [mN/m]	viscosity, 288.15 K [mPa·s]	viscosity, 313.15 K [mPa·s]
w1 = 0.1	1007.1 ± 1	1001.1 ± 1	58.71 ± 2.1	1.711 ± 0.021	0.905 ± 0.012
w1 = 0.2	1017.5 ± 1.1	1008.1 ± 1.1	54.68 ± 1.9	2.631 ± 0.032	1.312 ± 0.018
